Test results reported in US5602174A, “Treatment” (Beecham Wuefling GmbH & Co., priority 1986, dated 1997).

What was measured:
[1] = Haemodynamic profile in anaesthetized rats; type: in vivo, rat; design: Dhr^20 (i.v. dose which reduces heart rate by ca. 20%) / Dhr^20 (dose which reduces heart rate by ca. 20%): unit not given here
Excerpt: The effect of compounds of the invention on heart rate, systolic left ventricular pressure, left ventricular dp/dt max and mean arterial blood pressure was investigated so as to obtain information on the anti-anginal potential of these compounds, by reducing the oxygen demand of the ischaemic heart.
*Dhr^20 = i.v. dose which reduces heart rate by ca. 20%
**LVP = systolic left ventricular pressure
***BP = mean arterial blood pressure
^a = i.d. administration

coronary spasm = assay: Vasopressin test in anaesthetized rats (coronary spasm, ST-segment elevation in the ECG); type: in vivo, rat; settings: 0.6 g/kg i.d., vasopressin (Lysopressin 1 I.U./kg) i.v.
Protocol: Vasopressin (Lysopressin: 1 I.U./kg) was administered intravenously in order to provoke coronary spasm (ST-segment elevation in the ECG).
The ability of test compounds to reduce coronary spasm is taken as a measure of their anti-anginal potential in spasm-induced angina pectoris. (Ref. Drug. Res. 33(11), 8,1117-1121 (1983)).

[2] = i.v. at Dhr^20, anaesthetized rat

Row | Compound | % effect of Dhr^20 on BP (mean arterial blood pressure) [1, 2] | % effect of Dhr^20 on LVP (systolic left ventricular pressure) [1, 2] | % effect of Dhr^20 on dp/dtmax (left ventricular dp/dt max) [1, 2] | Dhr^20 (i.v. dose which reduces heart rate by ca. 20%) ([1]; i.v., anaesthetized rat) | i.v. duration of action on heart rate (rat) ([1]; i.v., anaesthetized rat) | % effect of Dhr^20 on BP (mean arterial blood pressure) ([1]; rat, in vivo) | Dhr^20 (dose which reduces heart rate by ca. 20%) ([1]; rat, in vivo) | duration of action on heart rate (rat) ([1]; rat, in vivo) | % effect of Dhr^20 on BP (mean arterial blood pressure) ([1]; rat, in vivo, iv) | % effect of Dhr^20 on LVP (systolic left ventricular pressure) ([1]; rat, in vivo, iv) | Dhr^20 (i.v. dose which reduces heart rate by ca. 20%) ([1]; rat, in vivo, iv) | i.v. duration of action on heart rate (rat) ([1]; rat, in vivo, iv) | active against coronary spasm (coronary spasm)
1 | CCCCOC(=O)N(CCCN(C)CCc1ccc(OC)c(OC)c1)c1ccc(OC)c(OC)c1 [Example E24, (N-[3,4-Dimethoxyphenyl]-N-3-[N'-2-(3,4-dimethoxyphenyl)-ethyl-N'methylamino]-propyl)-n-butyl-urethane] | -15% | -13% | -8% | 3.2 | 10 min | – | – | – | – | – | – | – | –
2 | COc1ccc(CCN(C)CCCN(C(=O)c2ccc([N+](=O)[O-])cc2)c2ccc(OC)c(OC)c2)cc1OC [Example E50, (N-[3,4-Dimethoxyphenyl]-N-3-[N'-2-(3,4-dimethoxyphenyl)-ethyl-N'-methyl-amino]-propyl)-4-nitrobenzamide] | – | – | – | – | – | -6% | 16 | > 90 min | -1% | -1% | 1.6 | 10 min | –
3 | COc1ccc(CCN(C)CCCN(C(=O)NCc2ccccc2)c2ccc(OC)c(OC)c2)cc1OC [Example E30, (N-[3,4-Dimethoxyphenyl]-N-3-[N'-2-(3,4-dimethoxyphenyl)-ethyl-N'-methylamino]-propyl)-N"-benzylurea] | -15% | -10% | -20% | 1.6 | 10 min | – | – | – | – | – | – | – | –
4 | COc1ccc(CCN(C)CCCN(c2ccc(OC)c(OC)c2)c2ncc([N+](=O)[O-])cc2[N+](=O)[O-])cc1OC [Example E44] | -10% | -6% | -8% | 3.2 | 10 min | – | – | – | – | – | – | – | –
5 | COc1ccc(CCN(C)CCCN(Cc2ccccc2)c2ccc(OC)c(OC)c2)cc1OC [Example E4, (N-[3,4-Dimethoxyphenyl]-N-3-[N'-2-(3,4-dimethoxyphenyl)-ethyl-N'-methylamino]-propyl)-benzylamine] | -6% | -3% | -12% | 3.2 | 10 min | – | – | – | – | – | – | – | –
6 | COc1ccc(CCN(C)CCCN(C(=O)Oc2ccccc2)c2ccc(OC)c(OC)c2)cc1OC [Example E25, (N-[3,4-Dimethoxyphenyl]-N-3-[N'-2-(3,4-dimethoxyphenyl)-ethyl-N'-methylamino]-propyl)-phenyl-urethane] | -14% | -10% | -2% | 0.8 | 10 min | – | – | – | – | – | – | – | –
7 | CCCCC(=O)N(CCCN(C)CCc1ccc(OC)c(OC)c1)c1ccc(OC)c(OC)c1 [Example E12, (N-[3,4-Dimethoxyphenyl]-N-3-[N'-2-(3,4-dimethoxyphenyl)-ethyl-N'-methylamino]-propyl)-pentanoic acid amide] | -11% | -6% | -6% | 1.6 | 10 min | – | – | – | – | – | – | – | –
8 | COc1ccc(CCN(C)CCN(C(=O)NC(C)c2ccccc2)c2ccc(OC)c(OC)c2)cc1OC (centres unmarked) [Example E32] | -13% | -7% | -3% | 3.2 | 10 min | – | – | – | – | – | – | – | –
9 | CCCCCN(CCCN(C)CCc1ccc(OC)c(OC)c1)c1ccc(OC)c(OC)c1 [Example E34, (N-[3,4-Dimethoxyphenyl]-N-3-[N'-2-(3,4-dimethoxyphenyl)-ethyl-N'-methylamino]-propyl)-n-pentylamine] | -9% | -9% | -10% | 1.6 | 5 to 10 min | – | – | – | – | – | – | – | –
10 | COc1ccc(CCN(C)CCCN(Cc2ccc([N+](=O)[O-])cc2)c2ccc(OC)c(OC)c2)cc1OC [Example E6, (N-[3,4-Dimethoxyphenyl]-N-3-[N'-2-(3,4-dimethoxyphenyl)-ethyl-N'-methylamino]-propyl)-(4-nitro)-benzylamine] | +1% | +5% | -5% | 0.4 | 60 min | – | – | – | – | – | – | – | –
11 | COc1ccc(CCN(C)CCCN(Cc2ccccc2[N+](=O)[O-])c2ccc(OC)c(OC)c2)cc1OC [Example E1] | 0% | -2% | -3% | 1.6 | 10 min | – | – | – | – | – | – | – | active
12 | CCCNC(=O)N(CCCN(C)CCc1ccc(OC)c(OC)c1)c1ccc(OC)c(OC)c1 [Example E27, (N-[3,4-Dimethoxyphenyl]-N-3-[N'-2-(3,4-dimethoxyphenyl)-ethyl-N'-methylamino]-propyl)-N"-n-propyl-urea] | -4% | -2% | -1% | 6.4 | 5 to 10 min | – | – | – | – | – | – | – | –
13 | COc1ccc(CCN(C)CCCN(C(=O)CCc2ccccc2)c2ccc(OC)c(OC)c2)cc1OC [Example E15, (N-[5,4-Dimethoxyphenyl]-N-3-[N'-2-(3,4-dimethoxyphenyl)-ethyl-N'-methylamino]-propyl)-(3-phenyl)propanoic acid amide] | -8% | -7% | -7% | 1.6 | 10 min | – | – | – | – | – | – | – | –
